Reference: PubChem BioAssay (NCI)
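1) Cells in 96-well plates. 2) Compound, 48 h, 5 concentrations. 3) Linear interpolation between surrounding doses. 4) Unreached endpoint = highest concentration. Abbreviation: GI50, concentration required for 50% inhibition of growth. Definition used: TGI = concentration required for complete inhibition of growth.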

Columns and labels:
Experiment in all cases: NCI anticancer screen, dose series, 48 h
KM12 colon = test system: KM12 colon
SK-OV-3 ovarian = test system: SK-OV-3 ovarian
NCI-H522 lung = test system: NCI-H522 lung
IGROV1 ovarian = test system: IGROV1 ovarian
HOP-62 NSCLC = test system: HOP-62 NSCLC
UO-31 renal = test system: UO-31 renal
SK-MEL-2 melanoma = test system: SK-MEL-2 melanoma
MOLT-4 leukemia = test system: MOLT-4 leukemia

Compound `COc1cccc(Nc2ncnc3cc(NC(=O)CCl)ccc23)c1` has a GI50 (KM12 colon) of 1.36 µM, a TGI (KM12 colon) of 2.9 µM and a GI50 (SK-OV-3 ovarian) of 1.58 µM. For the same compound, the TGI (SK-OV-3 ovarian) was 3.15 µM, the GI50 (NCI-H522 lung) was 0.388 µM and the TGI (NCI-H522 lung) was 1.63 µM. For the same compound, the GI50 (IGROV1 ovarian) was 0.568 µM, the TGI (IGROV1 ovarian) was 2.25 µM and the GI50 (HOP-62 NSCLC) was 1.48 µM. For the same compound, the TGI (HOP-62 NSCLC) was 3.06 µM, the GI50 (UO-31 renal) was 1.11 µM and the TGI (UO-31 renal) was 2.43 µM. It also gave a GI50 (SK-MEL-2 melanoma) of 1.69 µM and a TGI (SK-MEL-2 melanoma) of 3.48 µM.

Compound `CCCCC(=O)N(c1ccc(Nc2c3ccccc3nc3cc([N+](=O)[O-])ccc23)cc1)S(C)(=O)=O` has a GI50 (KM12 colon) of 2.63 µM, a TGI (KM12 colon) of 19.3 µM and a GI50 (SK-OV-3 ovarian) of 27 µM. It also gave a TGI (SK-OV-3 ovarian) of over 100 µM, a GI50 (NCI-H522 lung) of 3.93 µM and a TGI (NCI-H522 lung) of 16 µM. For the same compound, the GI50 (IGROV1 ovarian) was 6.86 µM, the TGI (IGROV1 ovarian) was over 45.8 µM and the GI50 (MOLT-4 leukemia) was 3.53 µM. It also gave a TGI (MOLT-4 leukemia) of 28.4 µM, a GI50 (HOP-62 NSCLC) of 4.52 µM and a TGI (HOP-62 NSCLC) of 52.5 µM. It also gave a GI50 (UO-31 renal) of 3.61 µM, a TGI (UO-31 renal) of 45.3 µM and a GI50 (SK-MEL-2 melanoma) of 23.3 µM. The TGI (SK-MEL-2 melanoma) was 62.9 µM.

In the case of `COC(=O)[C@H](Cc1cn(C)cn1)NC(=O)[C@H](CC(=O)OCc1ccccc1)NC(=O)Nc1cc(C(F)(F)F)cc(C(F)(F)F)c1`, the GI50 (KM12 colon) is reported as 14 µM, the TGI (KM12 colon) is reported as 30.7 µM and the GI50 (SK-OV-3 ovarian) is reported as 9.07 µM. For the same compound, the TGI (SK-OV-3 ovarian) was 21.4 µM, the GI50 (NCI-H522 lung) was 8.53 µM and the TGI (NCI-H522 lung) was 21.4 µM. It also gave a GI50 (IGROV1 ovarian) of 14.5 µM, a TGI (IGROV1 ovarian) of 29.2 µM and a GI50 (MOLT-4 leukemia) of 17.1 µM. The TGI (MOLT-4 leukemia) was 36.6 µM, the GI50 (HOP-62 NSCLC) was 5.03 µM and the TGI (HOP-62 NSCLC) was 16.9 µM. The GI50 (UO-31 renal) was 11.5 µM, the TGI (UO-31 renal) was 24.2 µM and the GI50 (SK-MEL-2 melanoma) was 3.89 µM. For the same compound, the TGI (SK-MEL-2 melanoma) was 12.6 µM.

With `CCOc1cc(-c2nncn2C)ccc1Nc1ncc2cc(C)nc(NCC(C)(C)C)c2n1` the GI50 (KM12 colon) was over 100 µM, the TGI (KM12 colon) was over 100 µM and the GI50 (SK-OV-3 ovarian) was over 100 µM. For the same compound, the TGI (SK-OV-3 ovarian) was over 100 µM, the GI50 (NCI-H522 lung) was over 64.4 µM and the TGI (NCI-H522 lung) was over 100 µM. The GI50 (IGROV1 ovarian) was over 100 µM, the TGI (IGROV1 ovarian) was over 100 µM and the TGI (MOLT-4 leukemia) was over 100 µM. It also gave a GI50 (HOP-62 NSCLC) of over 26.2 µM, a TGI (HOP-62 NSCLC) of over 100 µM and a GI50 (SK-MEL-2 melanoma) of over 100 µM. The TGI (SK-MEL-2 melanoma) was over 100 µM.

In the case of `COC(=O)c1c[nH]c2cc(OC(C)C)c(OC(C)C)cc2c1=O`, the GI50 (KM12 colon) is reported as over 100 µM, the TGI (KM12 colon) is reported as over 100 µM and the GI50 (SK-OV-3 ovarian) is reported as over 100 µM. The TGI (SK-OV-3 ovarian) was over 100 µM, the GI50 (NCI-H522 lung) was over 100 µM and the TGI (NCI-H522 lung) was over 100 µM. The GI50 (IGROV1 ovarian) was over 100 µM, the TGI (IGROV1 ovarian) was over 100 µM and the GI50 (MOLT-4 leukemia) was over 100 µM. It also gave a TGI (MOLT-4 leukemia) of over 100 µM, a GI50 (HOP-62 NSCLC) of 79.6 µM and a TGI (HOP-62 NSCLC) of over 100 µM. The GI50 (UO-31 renal) was over 100 µM, the TGI (UO-31 renal) was over 100 µM and the GI50 (SK-MEL-2 melanoma) was over 100 µM. The TGI (SK-MEL-2 melanoma) was over 100 µM.

`NCCCNc1nc2ccccc2c2c(=O)c3cc(F)ccc3sc12` was tested, and the GI50 (KM12 colon) was 1.8 µM, the TGI (KM12 colon) was 3.36 µM and the GI50 (SK-OV-3 ovarian) was 1.56 µM. For the same compound, the TGI (SK-OV-3 ovarian) was 3.31 µM, the GI50 (NCI-H522 lung) was 1.64 µM and the TGI (NCI-H522 lung) was 3.45 µM. For the same compound, the GI50 (IGROV1 ovarian) was 1.42 µM, the TGI (IGROV1 ovarian) was 2.9 µM and the GI50 (HOP-62 NSCLC) was 1.43 µM. It also gave a TGI (HOP-62 NSCLC) of 3.15 µM, a GI50 (UO-31 renal) of 1.27 µM and a TGI (UO-31 renal) of 2.57 µM. For the same compound, the GI50 (SK-MEL-2 melanoma) was 1.75 µM and the TGI (SK-MEL-2 melanoma) was 3.43 µM.

With `C=CCn1c2ccccc2c2c3c(c4c5ccccc5n(CC=C)c4c21)C(=O)N(O)C3=O` the GI50 (KM12 colon) was 3.2 µM, the TGI (KM12 colon) was 18.4 µM and the GI50 (SK-OV-3 ovarian) was 3.22 µM. It also gave a TGI (SK-OV-3 ovarian) of over 100 µM, a GI50 (NCI-H522 lung) of 1.09 µM and a TGI (NCI-H522 lung) of 2.56 µM. For the same compound, the GI50 (IGROV1 ovarian) was 1.4 µM, the TGI (IGROV1 ovarian) was 3.8 µM and the GI50 (MOLT-4 leukemia) was 1.02 µM. For the same compound, the TGI (MOLT-4 leukemia) was 5.12 µM, the GI50 (HOP-62 NSCLC) was 2.49 µM and the TGI (HOP-62 NSCLC) was 12.7 µM. It also gave a GI50 (UO-31 renal) of 1.75 µM, a TGI (UO-31 renal) of 5 µM and a GI50 (SK-MEL-2 melanoma) of 13 µM. It also gave a TGI (SK-MEL-2 melanoma) of 46.1 µM.

Work on `O=C(Oc1ccccc1)N(c1ccccc1)c1ccccc1` yielded a GI50 (KM12 colon) of 28.7 µM, a TGI (KM12 colon) of over 100 µM and a GI50 (SK-OV-3 ovarian) of 47.3 µM. For the same compound, the TGI (SK-OV-3 ovarian) was over 100 µM, the GI50 (IGROV1 ovarian) was 38.1 µM and the TGI (IGROV1 ovarian) was over 100 µM. For the same compound, the GI50 (MOLT-4 leukemia) was 28.3 µM, the TGI (MOLT-4 leukemia) was over 100 µM and the GI50 (HOP-62 NSCLC) was 32.2 µM. The TGI (HOP-62 NSCLC) was over 100 µM, the GI50 (UO-31 renal) was 15 µM and the TGI (UO-31 renal) was over 100 µM. The GI50 (SK-MEL-2 melanoma) was 30.6 µM and the TGI (SK-MEL-2 melanoma) was over 100 µM.

`COC(=O)[C@]12CC[C@@H](C)[C@H](C)[C@@H]1C1=CC[C@@H]3[C@@]4(C)C(C=O)=C[C@@](C)(CO)[C@@H]4[C@H](O)C[C@@]3(C)[C@]1(C)CC2` showed a GI50 (KM12 colon) of 4.02 µM, a TGI (KM12 colon) of 15.3 µM and a GI50 (SK-OV-3 ovarian) of 17 µM. The TGI (SK-OV-3 ovarian) was 31.6 µM, the GI50 (IGROV1 ovarian) was 4.25 µM and the TGI (IGROV1 ovarian) was 21 µM. For the same compound, the GI50 (MOLT-4 leukemia) was 2.79 µM, the TGI (MOLT-4 leukemia) was 8.73 µM and the GI50 (HOP-62 NSCLC) was 13.8 µM. The TGI (HOP-62 NSCLC) was 29.6 µM, the GI50 (UO-31 renal) was 2.28 µM and the TGI (UO-31 renal) was 12.2 µM. It also gave a GI50 (SK-MEL-2 melanoma) of 7.26 µM and a TGI (SK-MEL-2 melanoma) of 22.5 µM.

For `COc1cc(C(=O)/C=C/c2cc(-c3ccc4c(c3)OCO4)n[nH]2)cc(OC)c1OC`, the GI50 (KM12 colon) was 1.86 µM, the TGI (KM12 colon) was 3.85 µM and the GI50 (SK-OV-3 ovarian) was 4.44 µM. It also gave a TGI (SK-OV-3 ovarian) of 14.6 µM, a GI50 (NCI-H522 lung) of 1.59 µM and a TGI (NCI-H522 lung) of 3.41 µM. The GI50 (IGROV1 ovarian) was 1.99 µM, the TGI (IGROV1 ovarian) was 5.72 µM and the GI50 (MOLT-4 leukemia) was 2.71 µM. The TGI (MOLT-4 leukemia) was 8.36 µM, the GI50 (HOP-62 NSCLC) was 2.32 µM and the TGI (HOP-62 NSCLC) was 6.24 µM. For the same compound, the GI50 (UO-31 renal) was 1.34 µM and the TGI (UO-31 renal) was 2.67 µM.

With `CCN(CC)CCNC(=O)c1cccc2c1-c1ccccc1C2=O` the GI50 (KM12 colon) was over 100 µM, the TGI (KM12 colon) was over 100 µM and the GI50 (SK-OV-3 ovarian) was over 100 µM. The TGI (SK-OV-3 ovarian) was over 100 µM, the GI50 (NCI-H522 lung) was over 100 µM and the TGI (NCI-H522 lung) was over 100 µM. For the same compound, the GI50 (IGROV1 ovarian) was over 100 µM, the TGI (IGROV1 ovarian) was over 100 µM and the GI50 (HOP-62 NSCLC) was over 100 µM. For the same compound, the TGI (HOP-62 NSCLC) was over 100 µM, the GI50 (UO-31 renal) was over 100 µM and the TGI (UO-31 renal) was over 100 µM. For the same compound, the GI50 (SK-MEL-2 melanoma) was over 100 µM and the TGI (SK-MEL-2 melanoma) was over 100 µM.
